Data on 25 compounds can be found in patent US12528773B2, “Non-lysosomal glucosylceramidase inhibitors and uses thereof” (ALECTOS THERAPEUTICS INC., priority 2020, dated 2026).

One assay deals with GBA2 (Homo sapiens (Human), UniProt Q9HCG7). The assay is described as follows: Inhibition of GBA2 in cell lysate (4-methylumbelliferone glucopyranoside substrate).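 Also: homogenate of stably transfected HEK293T cells pre-treated with a GCase inhibitor, test compound preincubated 5 min at 37 °C, substrate reaction 20 min at 37 °C.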 Type of assay: biochemical. The following applies: HEK293T-overexpressing GBA2 cellular homogenate, pH 5.5; read-out: GBA2 IC50.
Assay [1] relates to rat intestinal alpha-glucosidases. Briefly: Inhibition of rat intestinal alpha-glucosidases (rat intestinal lysate, glucose detection). Type of assay: biochemical. Particulars: compound concentration 25 μM, sucrose as substrate. As to the method:
Assay for Determination of Inhibition of Rat Intestinal Alpha-Glucosidases
Various concentrations of test compounds were prepared in DMSO and then diluted into buffer consisting of 100 mM citric acid, 200 mM disodium phosphate, pH 6.0. Rat intestinal acetone powder (Sigma) was dissolved to 12.5 mg/mL in assay buffer and sonicated in an ice bath, centrifuged, and the supernatant was collected, aliquoted and stored at −20° C. until use. On the day of the assay, the rat intestinal lysate was diluted to 6.25 mg/mL (sucrose reactions) and 2.1 mg/ml (maltose reactions) in assay buffer. The final reaction solutions for sucrose contained 2.1 mg/mL rat intestinal lysate, 40 mM sucrose, 50 or 25 μM of test compound, and 3.3% DMSO. The final reaction solution for maltose contained 0.69 mg/mL rat intestinal lysate, 10 mM maltose, 50 or 25 μM of test compound, and 3.3% DMSO. The reaction was initiated by the addition of substrate (sucrose or maltose) and allowed to proceed at 37° C. for 20 min to assess rat intestinal alpha-glycosidase activities. The reaction was stopped by addition of 20 μL of 2 M Tris-HCl, pH 7.0. The glucose produced during the reaction was detected using a commercial Amplex Red glucose detection kit from Thermo Fisher. For a full plate, the Amplex Red detection mixture was prepared by mixing 35 μL glucose oxidase, 35 μL horseradish peroxidase and 35 μL Amplex Red into 3395 μL 1× Amplex Red detection buffer. A total of 30 μL of detection mixture was added to each well. Fluorescence was measured in kinetic mode on a Biotek Synergy H4 plate reader at a wavelength of 573 nm for excitation and 610 nm for emission for 15 min and quantified from the data at 10 min. Incubations without added rat intestinal lysate were used to correct for the background amount of glucose present in the samples. Incubations without added test compound were used to define maximal enzyme activity. Percent inhibition of rat intestinal alpha-glucosidases was determined by dividing the amount of glucose detected in the presence of test compound by the amount of glucose detected in the maximal enzyme activity wells. All conditions were analyzed in triplicate. […] The final reaction solutions were the same as described above for the Amplex Red Detection kit. After a 20 min reaction time at 37° C., 100 μL of hexokinase glucose reagent was added to all test wells except for the no enzyme added control wells and no test compound added wells. The plate was incubated for a further 15 min at room temperature and the absorbance was read at 340 nm on a Biotek Synergy H4 plate reader. The percent inhibition of rat intestinal alpha-glucosidases was determined in a similar manner as described above.

By IC50 is commonly meant the point on the concentration scale where inhibition reaches its midpoint.

GBA2, sequence (Q9HCG7 whole entry): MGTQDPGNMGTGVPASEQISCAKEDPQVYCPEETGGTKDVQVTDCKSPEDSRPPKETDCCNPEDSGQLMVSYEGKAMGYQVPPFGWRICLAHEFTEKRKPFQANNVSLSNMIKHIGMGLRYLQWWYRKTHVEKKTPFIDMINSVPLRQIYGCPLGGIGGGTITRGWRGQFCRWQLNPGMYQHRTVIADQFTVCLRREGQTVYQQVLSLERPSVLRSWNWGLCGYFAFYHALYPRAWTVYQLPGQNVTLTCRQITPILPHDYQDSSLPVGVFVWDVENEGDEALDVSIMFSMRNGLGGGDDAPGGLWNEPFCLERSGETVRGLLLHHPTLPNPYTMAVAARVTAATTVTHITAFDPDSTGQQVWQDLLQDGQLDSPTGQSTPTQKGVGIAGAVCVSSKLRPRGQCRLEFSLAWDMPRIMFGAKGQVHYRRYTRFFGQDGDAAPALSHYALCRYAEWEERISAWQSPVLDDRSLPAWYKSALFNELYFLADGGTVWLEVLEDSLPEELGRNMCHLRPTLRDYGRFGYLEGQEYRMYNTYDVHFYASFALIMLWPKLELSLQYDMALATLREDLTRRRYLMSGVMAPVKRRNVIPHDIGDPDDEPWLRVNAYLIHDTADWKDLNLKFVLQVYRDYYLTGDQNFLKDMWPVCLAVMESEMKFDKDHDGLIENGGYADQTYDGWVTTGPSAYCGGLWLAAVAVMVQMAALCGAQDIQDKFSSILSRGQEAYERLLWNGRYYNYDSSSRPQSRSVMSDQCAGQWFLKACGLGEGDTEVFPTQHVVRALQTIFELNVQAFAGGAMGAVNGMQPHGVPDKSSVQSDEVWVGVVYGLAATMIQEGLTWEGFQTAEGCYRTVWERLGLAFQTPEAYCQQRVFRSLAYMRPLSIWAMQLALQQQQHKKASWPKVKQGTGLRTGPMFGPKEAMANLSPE

On to `O[C@H]1[C@H](O)CN(C[C@@H]2CCN(c3ccc(C(F)(F)F)nc3)C2)C[C@@H]1O` [Example 162, (3S,4S,5R)-1-(((S)-1-(6-(trifluoromethyl)pyridin-3-yl)pyrrolidin-3-yl)methyl)piperidine-3,4,5-triol], for which, at GBA2, the IC50 was below 100 nM. Further, the “rat α-glu. (% inhib.)” value in assay [1] stood at 0%.
On the same counts, the results for `O[C@H]1[C@H](O)CN(C[C@H]2CCCN(c3cnccc3C(F)(F)F)C2)C[C@@H]1O` [Example 167, (3S,4R,5R)-1-(((R)-1-(4-(trifluoromethyl)pyridin-3-yl)piperidin-3-yl)methyl)piperidine-3,4,5-triol] are below 100 nM and 4%.
On the same counts, the results for `O[C@H]1[C@H](O)CN(C[C@H]2CCCN(c3cncc(C(F)(F)F)c3)C2)C[C@@H]1O` [Example 168, (3S,4R,5R)-1-(((R)-1-(5-(trifluoromethyl)pyridin-3-yl)piperidin-3-yl)methyl)piperidine-3,4,5-triol] are below 100 nM and 7%.
On the same counts, the results for `O[C@H]1[C@H](O)CN(C[C@H]2CCCN(c3cc(C(F)(F)F)ccn3)C2)C[C@@H]1O` [Example 169, (3S,4R,5R)-1-(((R)-1-(4-(trifluoromethyl)pyridin-2-yl)piperidin-3-yl)methyl)piperidine-3,4,5-triol] are below 100 nM and 13%.
As for `O[C@H]1[C@H](O)CN(C[C@H]2CCCN(c3ccc(C(F)(F)F)cn3)C2)C[C@@H]1O` [Example 170, (3S,4R,5R)-1-(((R)-1-(5-(trifluoromethyl)pyridin-2-yl)piperidin-3-yl)methyl)piperidine-3,4,5-triol], at GBA2, the IC50 is below 100 nM. For the same compound, the “rat α-glu. (% inhib.)” value in assay [1] worked out at 14%.
Taken in the same sequence, the figures for `O[C@H]1[C@H](O)CN(C[C@H]2CCCN(c3ccc(C(F)(F)F)nc3)C2)C[C@@H]1O` [Example 171, (3S,4R,5R)-1-(((R)-1-(6-(trifluoromethyl)pyridin-3-yl)piperidin-3-yl)methyl)piperidine-3,4,5-triol] were below 100 nM and 1%.
`O[C@H]1[C@H](O)CN(C[C@H]2CCCN(c3ccncc3C(F)(F)F)C2)C[C@@H]1O` [Example 172, (3S,4R,5R)-1-(((R)-1-(3-(trifluoromethyl)pyridin-4-yl)piperidin-3-yl)methyl)piperidine-3,4,5-triol]: the IC50 on GBA2 is below 100 nM. Moreover, the “rat α-glu. (% inhib.)” value in assay [1] is 15%.
On the same counts, the results for `O[C@H]1[C@H](O)CN(C[C@H]2CCCN(c3ccnc(C(F)(F)F)c3)C2)C[C@@H]1O` [Example 173, (3S,4R,5R)-1-(((R)-1-(2-(trifluoromethyl)pyridin-4-yl)piperidin-3-yl)methyl)piperidine-3,4,5-triol] are below 100 nM and 3%.
In the case of `O[C@H]1[C@H](O)CN(C[C@@H]2CCCN(c3cccnc3C(F)(F)F)C2)C[C@@H]1O` [Example 174, (3S,4S,5R)-1-(((S)-1-(2-(trifluoromethyl)pyridin-3-yl)piperidin-3-yl)methyl)piperidine-3,4,5-triol], the IC50 at GBA2 was below 100 nM. Moreover, the “rat α-glu. (% inhib.)” value in assay [1] worked out at 3%.
Taken in the same sequence, the figures for `O[C@H]1[C@H](O)CN(C[C@@H]2CCCN(c3cncc(C(F)(F)F)c3)C2)C[C@@H]1O` [Example 175, (3S,4S,5R)-1-(((S)-1-(5-(trifluoromethyl)pyridin-3-yl)piperidin-3-yl)methyl)piperidine-3,4,5-triol] were 100 to 1000 nM and 3%.
On the same counts, the results for `O[C@H]1[C@H](O)CN(C[C@@H]2CCCN(c3cc(C(F)(F)F)ccn3)C2)C[C@@H]1O` [Example 176, (3S,4S,5R)-1-(((S)-1-(4-(trifluoromethyl)pyridin-2-yl)piperidin-3-yl)methyl)piperidine-3,4,5-triol] are 100 to 1000 nM and 0%.
On the same counts, the results for `O[C@H]1[C@H](O)CN(C[C@@H]2CCCN(c3ccc(C(F)(F)F)cn3)C2)C[C@@H]1O` [Example 177, (3S,4S,5R)-1-(((S)-1-(5-(trifluoromethyl)pyridin-2-yl)piperidin-3-yl)methyl)piperidine-3,4,5-triol] are 1000 to 25000 nM and 7%.
As to `O[C@H]1[C@H](O)CN(C[C@@H]2CCCN(c3ccc(C(F)(F)F)nc3)C2)C[C@@H]1O` [Example 178, (3S,4S,5R)-1-(((S)-1-(6-(trifluoromethyl)pyridin-3-yl)piperidin-3-yl)methyl)piperidine-3,4,5-triol], on GBA2, the IC50 lay in the range of 100 to 1000 nM. The “rat α-glu. (% inhib.)” value in assay [1] is given as 6%.
Taken in the same sequence, the figures for `O[C@H]1[C@H](O)CN(C[C@@H]2CCCN(c3ccncc3C(F)(F)F)C2)C[C@@H]1O` [Example 179, (3S,4S,5R)-1-(((S)-1-(3-(trifluoromethyl)pyridin-4-yl)piperidin-3-yl)methyl)piperidine-3,4,5-triol] were 100 to 1000 nM and 6%.
As for `O[C@H]1[C@H](O)CN(C[C@H]2CC[C@H](C(F)F)CC2)C[C@@H]1O` [Example 185, (3S,4R,5R)-1-(((1r,4R)-4-(difluoromethyl)cyclohexyl)methyl)piperidine-3,4,5-triol], on GBA2, the IC50 lay within 100 to 1000 nM. Besides, the “rat α-glu. (% inhib.)” value in assay [1] is recorded as 3%.
On the same counts, the results for `O[C@H]1[C@H](O)CN(C[C@H]2CC[C@@H](C(F)F)CC2)C[C@@H]1O` [Example 186, (3S,4R,5R)-1-(((1s,4S)-4-(difluoromethyl)cyclohexyl)methyl)piperidine-3,4,5-triol] are 100 to 1000 nM and 8%.
On to `CC(F)(F)[C@H]1CC[C@@H](CN2C[C@@H](O)[C@H](O)[C@@H](O)C2)CC1` [Example 187, (3S,4R,5R)-1-(((1s,4S)-4-(1,1-difluoroethyl)cyclohexyl)methyl)piperidine-3,4,5-triol], for which the IC50 on GBA2 was below 100 nM. The “rat α-glu. (% inhib.)” value in assay [1] is 0%.
On the same counts, the results for `CC(F)(F)[C@H]1CC[C@H](CN2C[C@@H](O)[C@H](O)[C@@H](O)C2)CC1` [Example 188, (3S,4R,5R)-1-(((1r,4R)-4-(1,1-difluoroethyl)cyclohexyl)methyl)piperidine-3,4,5-triol] are below 100 nM and 10%.
Taken in the same sequence, the figures for `O[C@H]1[C@H](O)CN(C[C@H]2CC[C@H](OC(F)(F)F)CC2)C[C@@H]1O` [Example 189, (3S,4R,5R)-1-(((1r,4R)-4-(trifluoromethoxy)cyclohexyl)methyl)piperidine-3,4,5-triol] were below 100 nM and 3%.
In the case of `O[C@H]1[C@H](O)CN(CC2Cc3c(F)ccc(F)c3C2)C[C@@H]1O` [Example 190, (3S,4r,5R)-1-((4,7-difluoro-2,3-dihydro-1H-inden-2-yl)methyl)piperidine-3,4,5-triol], the IC50 at GBA2 is below 100 nM. Moreover, the “rat α-glu. (% inhib.)” value in assay [1] stood at 4%.
On to `O=C(C1CCCCC1)N1CCC(F)(CN2C[C@@H](O)[C@H](O)[C@@H](O)C2)CC1` [Example 191, Cyclohexyl(4-fluoro-4-(((3S,4r,5R)-3,4,5-trihydroxypiperidin-1-yl)methyl)piperidin-1-yl)methanone], for which the IC50 on GBA2 is 100 to 1000 nM. Further, the “rat α-glu. (% inhib.)” value in assay [1] is reported as 1%.
Taken in the same sequence, the figures for `O[C@H]1[C@H](O)CN(CC2(F)CCN(c3ccc(F)cc3)CC2)C[C@@H]1O` [Example 192, (3S,4r,5R)-1-((4-fluoro-1-(4-fluorophenyl)piperidin-4-yl)methyl)piperidine-3,4,5-triol] were 100 to 1000 nM and 2%.
On the same counts, the results for `O[C@H]1[C@H](O)CN(CC2(F)CCN(c3ccccc3C(F)(F)F)CC2)C[C@@H]1O` [Example 193, (3S,4r,5R)-1-((4-fluoro-1-(2-(trifluoromethyl)phenyl)piperidin-4-yl)methyl)piperidine-3,4,5-triol] are below 100 nM and 2%.
On the same counts, the results for `O[C@H]1[C@H](O)CN(CC2(F)CCN(c3ncccc3C(F)(F)F)CC2)C[C@@H]1O` [Example 194, (3S,4r,5R)-1-((4-fluoro-1-(3-(trifluoromethyl)pyridin-2-yl)piperidin-4-yl)methyl)piperidine-3,4,5-triol] are below 100 nM and 4%.
Turning to `O[C@H]1[C@H](O)CN(CC2(F)CCN(c3cccc(C(F)(F)F)n3)CC2)C[C@@H]1O` [Example 195, (3S,4r,5R)-1-((4-fluoro-1-(6-(trifluoromethyl)pyridin-2-yl)piperidin-4-yl)methyl)piperidine-3,4,5-triol], the IC50 at GBA2 lay within 100 to 1000 nM. Besides, the “rat α-glu. (% inhib.)” value in assay [1] came to 5%.
